Assay results as given in patent US20210045385A1, “PYRIDAZINONE-SUBSTITUTED KETOXIMES AS HERBICIDES” (FMC Corporation, priority 2018, published 2021).

What was measured:
Type in all cases: in vivo
[1] = tested on: barnyardgrass (Echinochloa crus-galli); assay: Test C postemergence, visual plant response rating
Method in brief: (§1)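 Compounds in a non-phytotoxic solvent with surfactant were applied as a directed soil spray preemergence or to 2–10 cm, one- to two-leaf plants postemergence, in loam–sand soil. After about 10 d in a greenhouse, injury was visually rated against untreated controls on a 0–100 scale (100 = complete control).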

[2] = tested on: ragweed (common ragweed, Ambrosia artemisiifolia); assay: Test C postemergence, visual plant response rating
Method in brief: as §1

[3] = tested on: foxtail, giant (giant foxtail, Setaria faberi); assay: Test C postemergence, visual plant response rating
Method in brief: as §1

[4] = tested on: pigweed (Amaranthus retroflexus); assay: Test C postemergence, visual plant response rating
Method in brief: as §1

[5] = tested on: blackgrass (Alopecurus myosuroides); assay: Test C postemergence, visual plant response rating
Method in brief: as §1

[6] = tested on: Italian ryegrass (Lolium mutiflorum); assay: Test C postemergence, visual plant response rating
Method in brief: as §1

[7] = tested on: corn (Zea mays); assay: Test C postemergence, visual plant response rating
Method in brief: as §1

[8] = tested on: kochia (Bassia scoparia); assay: Test C postemergence, visual plant response rating
Method in brief: as §1

[9] = tested on: galium (catchweed bedstraw, Galium aparine); assay: Test C postemergence, visual plant response rating
Method in brief: as §1

[10] = tested on: wheat (Triticum aestivum); assay: Test C postemergence, visual plant response rating
Method in brief: as §1

[11] = tested on: barnyardgrass (Echinochloa crus-galli); assay: Test C preemergence, visual plant response rating
Method in brief: as §1

[12] = tested on: ragweed (common ragweed, Ambrosia artemisiifolia); assay: Test C preemergence, visual plant response rating
Method in brief: as §1

[13] = tested on: foxtail, giant (giant foxtail, Setaria faberi); assay: Test C preemergence, visual plant response rating
Method in brief: as §1

[14] = tested on: pigweed (Amaranthus retroflexus); assay: Test C preemergence, visual plant response rating
Method in brief: as §1

[15] = tested on: Italian ryegrass (Lolium mutiflorum); assay: Test C preemergence, visual plant response rating
Method in brief: as §1

[16] = tested on: kochia (Bassia scoparia); assay: Test C preemergence, visual plant response rating
Method in brief: as §1

[17] = tested on: barnyardgrass (Echinochloa crus-galli); assay: Test D flooded paddy test, visual plant response rating; conditions: 250 g ai/ha, scale 0 to 100 (0 no effect, 100 complete control), 13 to 15 d
Method in brief: (§2)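 2-leaf plants, flooded 3 cm, cpd into paddy water; greenhouse 13–15 d; visual rating vs controls, 0 = no effect, 100 = complete control; dash = no result.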

[18] = tested on: duck salad (Heteranthera limosa); assay: as above; conditions: 250 g ai/ha, scale 0 to 100 (0 no effect, 100 complete control), 13 to 15 d
Method in brief: as §2

[19] = tested on: rice (Oryza sativa); assay: as above; conditions: 250 g ai/ha, scale 0 to 100 (0 no effect, 100 complete control), 13 to 15 d
Method in brief: as §2

[20] = tested on: sedge umbrella (small-flower umbrella sedge, Cyperus difformis); assay: as above; conditions: 250 g ai/ha, scale 0 to 100 (0 no effect, 100 complete control), 13 to 15 d
Method in brief: as §2

[21] = Test C, postemergence, 125 g ai/ha
[22] = Test C, 31 g ai/ha, 0 is no effect, 100 is complete control

| Compound | Barnyardgrass plant response rating (0 to 100 scale) ([1]; Postemergence, 31 g ai/ha) | Barnyardgrass plant response rating (0 to 100 scale) [1, 21] | Ragweed plant response rating (0 to 100 scale) ([2]; Postemergence, 31 g ai/ha) | Ragweed plant response rating (0 to 100 scale) [2, 21] | Foxtail, Giant plant response rating (0 to 100 scale) ([3]; Postemergence, 31 g ai/ha) | Foxtail, Giant plant response rating (0 to 100 scale) [3, 21] | Pigweed plant response rating (0 to 100 scale) ([4]; Postemergence, 31 g ai/ha) | Pigweed plant response rating (0 to 100 scale) [4, 21] | Blackgrass plant response rating (0 to 100 scale) ([5]; Postemergence, 31 g ai/ha) | Blackgrass plant response rating (0 to 100 scale) [5, 21] | Ryegrass, Italian plant response rating (0 to 100 scale) ([6]; Postemergence, 31 g ai/ha) | Ryegrass, Italian plant response rating (0 to 100 scale) [6, 21] | Corn plant response rating (0 to 100 scale) ([7]; Postemergence, 31 g ai/ha) | Corn plant response rating (0 to 100 scale) [7, 21] | Kochia plant response rating (0 to 100 scale) ([8]; Postemergence, 31 g ai/ha) | Kochia plant response rating (0 to 100 scale) [8, 21] | Galium plant response rating (0 to 100 scale) ([9]; Postemergence, 31 g ai/ha) | Galium plant response rating (0 to 100 scale) [9, 21] | Wheat plant response rating (0 to 100 scale) ([10]; Postemergence, 31 g ai/ha) | Wheat plant response rating (0 to 100 scale) [10, 21] | also measured |
| --- | --- | --- | --- | --- | --- | --- | --- | --- | --- | --- | --- | --- | --- | --- | --- | --- | --- | --- | --- | --- | --- |
| C#CCO/N=C(\c1ccc(F)c(Br)c1)c1c(O)c(C)nn(C)c1=O [Compound 164] | 30 | 60 | 20 | 50 | 10 | 70 | 50 | 70 | 30 | 50 | 0 | 70 | 10 | 30 | 30 | 70 | 60 | 70 | 20 | 80 | Barnyardgrass plant response rating (0 to 100 scale) ([11]; 125 g ai/ha): 50; Barnyardgrass plant response rating (0 to 100 scale) [11, 22]: 0; Ragweed plant response rating (0 to 100 scale) ([12]; 125 g ai/ha): 30; Ragweed plant response rating (0 to 100 scale) [12, 22]: 0; Foxtail, Giant plant response rating (0 to 100 scale) ([13]; 125 g ai/ha): 50; Foxtail, Giant plant response rating (0 to 100 scale) [13, 22]: 10; Pigweed plant response rating (0 to 100 scale) ([14]; 125 g ai/ha): 90; Pigweed plant response rating (0 to 100 scale) [14, 22]: 70; Ryegrass, Italian plant response rating (0 to 100 scale) ([15]; 125 g ai/ha): 30; Ryegrass, Italian plant response rating (0 to 100 scale) [15, 22]: 0; Kochia plant response rating (0 to 100 scale) ([16]; 125 g ai/ha): 50; Kochia plant response rating (0 to 100 scale) [16, 22]: 0; Plant response rating, Barnyardgrass (Flood) [17]: 0; Plant response rating, Ducksalad (Flood) [18]: 0; Plant response rating, Rice (Flood) [19]: 0; Plant response rating, Sedge, Umbrella (Flood) [20]: 0 |
| CO/N=C(/c1cc(Cl)cc(OC)c1)c1c(O)c(C)nn(C)c1=O [Compound 165] | 40 | 80 | 80 | 100 | 20 | 70 | 40 | 70 | 20 | 40 | 70 | 100 | 0 | 20 | 90 | 90 | 100 | 100 | 0 | 30 | Barnyardgrass plant response rating (0 to 100 scale) ([11]; 125 g ai/ha): 80; Barnyardgrass plant response rating (0 to 100 scale) [11, 22]: 60; Ragweed plant response rating (0 to 100 scale) ([12]; 125 g ai/ha): 90; Ragweed plant response rating (0 to 100 scale) [12, 22]: 50; Foxtail, Giant plant response rating (0 to 100 scale) ([13]; 125 g ai/ha): 70; Foxtail, Giant plant response rating (0 to 100 scale) [13, 22]: 60; Pigweed plant response rating (0 to 100 scale) ([14]; 125 g ai/ha): 20; Pigweed plant response rating (0 to 100 scale) [14, 22]: 0; Ryegrass, Italian plant response rating (0 to 100 scale) ([15]; 125 g ai/ha): 100; Ryegrass, Italian plant response rating (0 to 100 scale) [15, 22]: 80; Kochia plant response rating (0 to 100 scale) ([16]; 125 g ai/ha): 100; Kochia plant response rating (0 to 100 scale) [16, 22]: 80; Plant response rating, Barnyardgrass (Flood) [17]: 0; Plant response rating, Ducksalad (Flood) [18]: 0; Plant response rating, Rice (Flood) [19]: 0; Plant response rating, Sedge, Umbrella (Flood) [20]: 0 |
